Measurements taken from ChEMBL document CHEMBL1275464, “Characterization of the carbapenem-hydrolyzing oxacillinase oxa-58 in an Acinetobacter genospecies 3 clinical isolate” (2008).
Converted amounts (≈) assume the structure as drawn.

Legend:
Format in all cases: functional
Acinetobacter baumannii [1] = experiment: Antimicrobial activity against Acinetobacter baumannii isolate Ac058 expressing beta-lactamase Oxa-58 by broth microdilution method
Acinetobacter pittii = experiment: Antimicrobial activity against Acinetobacter genospecies 3 isolate Ac057 expressing beta-lactamase Oxa-58 by broth microdilution method
Acinetobacter baumannii [2] = experiment: Antimicrobial activity against Acinetobacter baumannii isolate Ac058 expressing beta-lactamase Oxa-58 by broth microdilution method in presence of beta-lactamase inhibitor Sulbactam

With `CO[C@@]1(NC(=O)Cc2cccs2)C(=O)N2C(C(=O)O)=C(COC(N)=O)CS[C@@H]21` [CEFOXITIN] the MIC (Acinetobacter baumannii [1]) was 256 µg/mL (≈ 599 µM) and the MIC (Acinetobacter pittii) was 256 µg/mL (≈ 599 µM).
For `CC(=O)OCC1=C(C(=O)O)N2C(=O)[C@@H](NC(=O)Cc3cccs3)[C@H]2SC1` [CEPHALOTHIN], the MIC (Acinetobacter baumannii [1]) was 256 µg/mL (≈ 646 µM) and the MIC (Acinetobacter pittii) was 256 µg/mL (≈ 646 µM).
`CCN1CCN(C(=O)N[C@@H](C(=O)N[C@@H]2C(=O)N3[C@@H]2SC(C)(C)[C@@H]3C(=O)O)c2ccccc2)C(=O)C1=O` [PIPERACILLIN] gave an MIC (Acinetobacter baumannii [1]) of 512 µg/mL (≈ 989 µM) and an MIC (Acinetobacter pittii) of 512 µg/mL (≈ 989 µM).
`CC[C@H]1OC(=O)[C@H](C)[C@@H](O[C@H]2C[C@@](C)(OC)[C@@H](O)[C@H](C)O2)[C@H](C)[C@@H](O[C@@H]2O[C@H](C)C[C@H](N(C)C)[C@H]2O)[C@](C)(O)C[C@@H](C)CN(C)[C@H](C)[C@@H](O)[C@]1(C)O` [AZITHROMYCIN] gave an MIC (Acinetobacter baumannii [1]) of 128 µg/mL (≈ 171 µM) and an MIC (Acinetobacter pittii) of 4 µg/mL (≈ 5.34 µM).
Work on `O=C(O)c1cn(C2CC2)c2cc(N3CCNCC3)c(F)cc2c1=O` [CIPROFLOXACIN] yielded an MIC (Acinetobacter pittii) of 32 µg/mL (≈ 96.6 µM).
`C[C@H]1c2cccc(O)c2C(=O)C2=C(O)[C@]3(O)C(=O)C(C(N)=O)=C(O)[C@@H](N(C)C)[C@@H]3[C@@H](O)[C@@H]21.O` [DOXYCYCLINE] was tested, and the MIC (Acinetobacter baumannii [1]) was 16 µg/mL and the MIC (Acinetobacter pittii) was under 0.5 µg/mL.
GENTAMICIN was tested, and the MIC (Acinetobacter baumannii [1]) was 16 µg/mL and the MIC (Acinetobacter pittii) was under 1 µg/mL.
`C[C@@H](O)[C@H]1C(=O)N2C(C(=O)O)=C(S[C@@H]3CN[C@H](C(=O)N(C)C)C3)[C@H](C)[C@H]12` [MEROPENEM] was tested, and the MIC (Acinetobacter baumannii [1]) was 8 µg/mL (≈ 20.9 µM) and the MIC (Acinetobacter pittii) was 8 µg/mL (≈ 20.9 µM).
`CC1(C)S[C@@H]2[C@H](NC(=O)[C@H](N)c3ccccc3)C(=O)N2[C@H]1C(=O)O` [AMPICILLIN] was tested, and the MIC (Acinetobacter baumannii [1]) was 256 µg/mL (≈ 733 µM), the MIC (Acinetobacter pittii) was 256 µg/mL (≈ 733 µM) and the MIC (Acinetobacter baumannii [2]) was 64 µg/mL.
Work on `CO/N=C(\C(=O)N[C@@H]1C(=O)N2C(C(=O)[O-])=C(C[N+]3(C)CCCC3)CS[C@H]12)c1csc(N)n1` [CEFEPIME] yielded an MIC (Acinetobacter baumannii [1]) of 64 µg/mL (≈ 133 µM) and an MIC (Acinetobacter pittii) of 8 µg/mL (≈ 16.6 µM).
In the case of `CC(C)(O/N=C(\C(=O)N[C@@H]1C(=O)N2C(C(=O)[O-])=C(C[n+]3ccccc3)CS[C@H]12)c1csc(N)n1)C(=O)O` [CEFTAZIDIME], the MIC (Acinetobacter baumannii [1]) is reported as 256 µg/mL (≈ 468 µM) and the MIC (Acinetobacter pittii) is reported as 8 µg/mL (≈ 14.6 µM).
`NC[C@H]1O[C@H](O[C@H]2[C@H](O)[C@@H](O[C@H]3O[C@H](CO)[C@@H](O)[C@H](N)[C@H]3O)[C@H](N)C[C@@H]2N)[C@H](N)C[C@@H]1O` [TOBRAMYCIN] was tested, and the MIC (Acinetobacter baumannii [1]) was 64 µg/mL (≈ 137 µM) and the MIC (Acinetobacter pittii) was 0.25 µg/mL (≈ 0.535 µM).
`C[C@@H](O)[C@H]1C(=O)N2C(C(=O)O)=C(SCCNC=N)C[C@H]12` [IMIPENEM ANHYDROUS] showed an MIC (Acinetobacter baumannii [1]) of over 32 µg/mL and an MIC (Acinetobacter pittii) of over 32 µg/mL.
Work on POLYMYXIN B yielded an MIC (Acinetobacter baumannii [1]) of 1 µg/mL and an MIC (Acinetobacter pittii) of 2 µg/mL.
`NCC[C@H](O)C(=O)N[C@@H]1C[C@H](N)[C@@H](O[C@H]2O[C@H](CN)[C@@H](O)[C@H](O)[C@H]2O)[C@H](O)[C@H]1O[C@H]1O[C@H](CO)[C@@H](O)[C@H](N)[C@H]1O` [AMIKACIN] showed an MIC (Acinetobacter baumannii [1]) of 256 µg/mL (≈ 437 µM) and an MIC (Acinetobacter pittii) of 0.5 µg/mL (≈ 0.854 µM).
`CO[C@H]1/C=C/O[C@@]2(C)Oc3c(C)c(O)c4c(O)c(c(/C=N/N5CCN(C)CC5)c(O)c4c3C2=O)NC(=O)/C(C)=C\C=C\[C@H](C)[C@H](O)[C@@H](C)[C@@H](O)[C@@H](C)[C@H](OC(C)=O)[C@@H]1C` [RIFAMPIN] gave an MIC (Acinetobacter baumannii [1]) of 2 µg/mL (≈ 2.43 µM) and an MIC (Acinetobacter pittii) of 2 µg/mL (≈ 2.43 µM).
